In ChEMBL document CHEMBL1156829 (Proc Natl Acad Sci U S A, 2008) one finds EC50 and CC50 data, which are given here for 52 compounds.

The subject of data set [1] is Plasmodium falciparum. Put plainly: NOVARTIS: Inhibition of Plasmodium falciparum 3D7 (drug-susceptible) proliferation in erythrocyte-based infection assay. The class given is functional, organism-based. The following applies: Plasmodium falciparum, 3D7.
The test system of data set [2] is Plasmodium falciparum. The experiment in a line: NOVARTIS: Inhibition of Plasmodium falciparum W2 (drug-resistant) proliferation in erythrocyte-based infection assay. The class given is functional, organism-based. The following applies: Plasmodium falciparum, W2; read-out: EC50.
The nature of data set [3]: NOVARTIS: Cytotoxicity against human hepatocellular carcinoma cell line (Huh7). The following applies: Huh7 cells (hepatocellular carcinoma cell line). The format is toxicity, cell-based, Huh-7.

As usually defined, the EC50 is the concentration giving half of the maximal effect. By CC50 is commonly meant the concentration at which the toxic effect on the cells reaches its halfway point. Read a high CC50 as better tolerance by the cells.

Turning to `CSC1=NC(=Nc2c(C)cccc2C)C2(CCC(C(C)(C)C)CC2)N1c1ccc(Cl)cc1` (stereo unspecified), the EC50 was 1480 nM in the data set on Plasmodium falciparum [1] and more than 10000 nM in the data set on Plasmodium falciparum [2]. The same compound yielded a CC50 in data set [3] of more than 67.3 µM.
The like results for `NC(=O)NN=C1c2cc(S(=O)(=O)NCc3ccco3)ccc2-c2ccc(S(=O)(=O)NCc3ccco3)cc21` were, in that order, 1180 nM, more than 1540 nM and more than 10 µM.
The like results for `Cc1nc(-c2ccccn2)nc(NCCc2ccccc2)c1Cl` were, in that order, 1250 nM, 1510 nM and more than 10 µM.
The like results for `COc1ccc2nc(C)cc(Nc3ccc(Cl)cc3)c2c1` were, in that order, 1230 nM, 2680 nM and 18.3 µM.
As to `CN(C)c1ccc(N2C(N)=NC(N)=NC23CCCC3)cc1`, the EC50 with Plasmodium falciparum [1] was 244 nM; with Plasmodium falciparum [2], more than 1570 nM. The CC50 in data set [3] is more than 10 µM.
The like results for `O=C(Cc1ccccc1)Nc1ccc(C(=O)Nc2ccc(-c3nc4ccc(NC(=O)c5ccc(NC(=O)Cc6ccccc6)cc5)c(Cl)c4[nH]3)cc2)cc1` were, in that order, 8000 nM, 6020 nM and 40 µM.
For `COc1ccc(-c2cc(-c3ccccc3)nc(SCC(=O)N3c4ccccc4Sc4ccc(Cl)cc43)c2C#N)cc1`, the EC50 in the data set with Plasmodium falciparum [1] was more than 427 nM; with Plasmodium falciparum [2], more than 1530 nM. For the same compound, the CC50 in data set [3] is more than 10 µM.
The like results for `O=C(c1cccs1)N1CCN(c2ccccn2)CC1` were, in that order, 2020 nM, more than 1560 nM and more than 10 µM.
The corresponding values for `O=c1c2sccc2nc(SCc2cccc([N+](=O)[O-])c2)n1C1CC1` are 1250 nM, more than 1520 nM and more than 10 µM.
The corresponding values for `COc1cc(OC)c(OC)cc1CN1CCN(C(C)C)CC1` are more than 1010 nM, more than 1480 nM and more than 10 µM.
In the case of `COc1cccc(-n2sc3c(c2=S)-c2cc(OC)ccc2NC3(C)C)c1`, the EC50 with Plasmodium falciparum [1] was more than 991 nM; in the data set on Plasmodium falciparum [2], 1480 nM. For the same compound, in data set [3], the CC50 is more than 10 µM.
The like results for `COc1cc(/C=C(\C#N)c2nc3ccccc3[nH]2)ccc1OCc1ccc(C)cc1` were, in that order, 1050 nM, 1470 nM and more than 10 µM.
The corresponding values for `O=C(Nc1ccc(-c2nc3cc(NC(=O)c4ccc(Cl)cc4)ccc3[nH]2)cc1)c1ccc(Cl)cc1` are 993 nM, more than 12500 nM and 83.8 µM.
Consider `CCCCCC[n+]1ccccc1C=Cc1ccc(N(C)C)cc1`, for which the EC50 turned out to be 118 nM with Plasmodium falciparum [1] and 238 nM in the data set on Plasmodium falciparum [2]. Besides, in data set [3], the CC50 amounted to 1.6 µM.
The like results for `O=C(Nc1ccc(-n2cccn2)cc1)C1CCN(C/C=C/c2ccccc2)CC1` were, in that order, 464 nM, 1540 nM and more than 10 µM.
The like results for `Cc1ccc(NC(=O)CN2CCN(c3ccccn3)CC2)cc1F` were, in that order, 2080 nM, more than 1540 nM and more than 10 µM.
The corresponding values for `Cc1ccccc1Nc1sc(C(=O)c2ccc([N+](=O)[O-])cc2)c(N)c1C(=O)Nc1ccccc1` are more than 1200 nM, more than 1540 nM and more than 10 µM.
Consider `O=C(CN(CCN1CCOCC1)S(=O)(=O)c1ccccn1)N1CCN(C(c2ccccc2)c2ccccc2)CC1`, for which the EC50 was more than 12500 nM in the data set on Plasmodium falciparum [1] and 4440 nM in the data set with Plasmodium falciparum [2]. Further, in data set [3], the CC50 is more than 28.8 µM.
The like results for `COc1ccc2nc(C)cc(N(c3ccc(Br)cc3)S(=O)(=O)c3ccc([N+](=O)[O-])cc3)c2c1` were, in that order, 647 nM, 1050 nM and 6.83 µM.
The like results for `C=CCNC(=O)c1ccc2c(c1)N=C(CC(C)c1ccccc1)N(CC1CCCCC1)C2` (stereo unspecified) were, in that order, more than 1250 nM, 1530 nM and more than 10 µM.
The corresponding values for `COc1ccc(C2=C(c3ccc(OC)cc3)C3C(=O)C2C2C(=O)N(c4cccc5ccccc45)C(=O)C32)cc1` (stereo unspecified) are more than 1090 nM, more than 1510 nM and more than 10 µM.
Regarding `CCCCCCCCCCCCOCCCNC(=O)c1cccc(N)c1`, the EC50 in the data set on Plasmodium falciparum [1] was 1570 nM; in the data set on Plasmodium falciparum [2] it was more than 1560 nM. The compound further yielded a CC50 in data set [3] of more than 10 µM.
The like results for `COc1ccc(C2C(C(=O)OC3CCCCC3)=C(C)Nc3nnnn32)cc1` (stereo unspecified) were, in that order, more than 10000 nM, more than 11200 nM and more than 74.1 µM.
The like results for `CC(C)CNC(=O)c1cnc(NCCCN2CCCCC2C)nc1NCCc1ccccc1` (stereo unspecified) were, in that order, 374 nM, 1570 nM and more than 10 µM.
The like results for `Cc1ccc2nc3c(c(NCCCN(C)C)c2c1)CCC3` were, in that order, 935 nM, 1560 nM and more than 10 µM.
As for `CC1CCCCN1CCCNc1ncc(C(=O)NCCc2ccccc2)c(NCC2CCCO2)n1` (stereo unspecified), the EC50 was 914 nM in the data set on Plasmodium falciparum [1] and more than 1560 nM in the data set with Plasmodium falciparum [2]. Moreover, the CC50 in data set [3] is more than 10 µM.
The like results for `CN1[C@@H](C(=O)Nc2ccc3c(c2)OCO3)C[C@@H](c2ccc(F)cc2)NS1(=O)=O` were, in that order, 1960 nM, more than 1570 nM and more than 10 µM.
The corresponding values for `CCOC(=O)NN=C1C=C2C=CC3C(CC[C@@]4(C)C3CC3CCCCC34C(C)=O)[C@@]2(C)CC1` (stereo partly specified) are more than 902 nM, more than 1560 nM and more than 10 µM.
The like results for `NCCCNc1ncc(C(=O)NCc2ccccc2)c(NCC2CCCCC2)n1` were, in that order, 91.2 nM, 799 nM and 5.14 µM.
For the compound `O=[N+]([O-])c1cccc2c(S(=O)(=O)NCCCN(CCO)CCO)cccc12`, the results for the EC50 with Plasmodium falciparum [1] and with Plasmodium falciparum [2] were more than 1180 nM and more than 1550 nM, respectively. In data set [3], this compound displayed a CC50 of more than 10 µM.
On to `O=C(Nc1ccc(N2CCCCC2)cc1)N1CCc2nc[nH]c2C1`, for which the EC50 in the data set on Plasmodium falciparum [1] was more than 1250 nM; with Plasmodium falciparum [2] it was 1010 nM. Also, the CC50 in data set [3] is more than 6.67 µM.
In the case of `N#CCSc1nc2ccccc2c2nc(CCc3c[nH]c4ccccc34)nn12`, the EC50 in the data set on Plasmodium falciparum [1] was found to be 3870 nM; in the data set with Plasmodium falciparum [2] it was 3850 nM. Also, the CC50 in data set [3] is 25.4 µM.
The like results for `CCCN1CCC(N2C[C@@H](NCc3cc(C)ccc3C)C[C@H]2C(=O)NCCc2ccc3c(c2)OCO3)CC1` were, in that order, 478 nM, 661 nM and 4.2 µM.
The like results for `Cc1cc(I)ccc1N1C(=O)C2C3c4ccccc4C(CO)(c4ccccc43)C2C1=O` (stereo unspecified) were, in that order, more than 11200 nM, more than 10100 nM and more than 67.9 µM.
The corresponding values for `Cc1c(C(=O)Nc2ccccc2)sc2ncn(Cc3ccccc3F)c(=O)c12` are more than 875 nM, more than 1480 nM and more than 10 µM.
On to `CCC(c1nc2ccccc2c(=O)n1-c1ccc(F)cc1)N(CCc1ccccc1)C(=O)CCc1ccccc1` (stereo unspecified), for which the EC50 in the data set with Plasmodium falciparum [1] came out at 1520 nM; in the data set on Plasmodium falciparum [2], 1540 nM. In data set [3], the CC50 was more than 10 µM.
The like results for `c1ccc(C[C@H]2CN(c3ccc4ccccc4c3)CCN2CCNCC2CCCO2)cc1` (stereo partly specified) were, in that order, 272 nM, 380 nM and 2.54 µM.
The corresponding values for `C=CCSC1=NC2(CC(c3ccccc3)c3cc(Cl)c(O)cc3O2)CC(C)(C)N1` (stereo unspecified) are more than 1190 nM, 1520 nM and more than 10 µM.
The corresponding values for `COc1c([N+](=O)[O-])cc2c(c1Br)OC1(C=C2)N(C)c2ccccc2C1(C)C` (stereo unspecified) are 1740 nM, more than 1570 nM and more than 10 µM.
In the case of `CC(=O)Nc1cc([N+](=O)[O-])ccc1N1CCOCC1`, the EC50 was more than 1550 nM in the data set on Plasmodium falciparum [1] and 1500 nM in the data set with Plasmodium falciparum [2]. This compound also came in with a CC50 in data set [3] of more than 10 µM.
Turning to `CCCN(CC(=O)Nc1cc(C(C)(C)C)nn1-c1cccc(C)c1C)C(=O)C1CCCCC1`, the EC50 is 1180 nM in the data set with Plasmodium falciparum [1] and more than 1390 nM in the data set with Plasmodium falciparum [2]. For the same compound, in data set [3], the midpoint of cytotoxicity, the CC50, lay at 9.45 µM.
Consider `COC(=O)c1ccc(NC(=O)CSc2nc3cc4c(cc3cc2C#N)OCCO4)cc1`, for which the EC50 came out at 1610 nM in the data set on Plasmodium falciparum [1] and 1540 nM in the data set on Plasmodium falciparum [2]. Also, the CC50 in data set [3] was more than 10 µM.
The corresponding values for `Cn1c(=O)c2c(nc3n(CCCO)c(C45CC6CC(CC(C6)C4)C5)cn23)n(C)c1=O` are more than 1250 nM, 1540 nM and more than 10 µM.
The corresponding values for `O=C1C=C(Nc2ccc(O)cc2)c2ccccc2C1=O` are 730 nM, 785 nM and 5.12 µM.
For the compound `O=C1Nc2ccc(S(=O)(=O)Nc3ccc(NS(=O)(=O)c4ccc5c6c(cccc46)C(=O)N5)cc3)c3cccc1c23`, the EC50 with Plasmodium falciparum [1] was more than 1180 nM; in the data set on Plasmodium falciparum [2], more than 1250 nM. Also, the CC50 in data set [3] is more than 8.12 µM.
The like results for `COc1cc2c(O[C@@H]3O[C@H](CO)[C@@H](O)[C@H](O)[C@H]3O)c3c(c(-c4ccc5c(c4)OCO5)c2cc1OC)C(=O)OC3` were, in that order, 74.3 nM, 120 nM and 0.784 µM.
The corresponding values for `C=CCN1C(=O)/C(=C\c2cc(Cl)c(O)c(OC)c2)C(=O)NC1=S` are 2110 nM, more than 1480 nM and more than 10 µM.
The like results for `Cc1ccc(N2C3c4ccccc4N(S(=O)(=O)c4ccc(C)cc4)C2c2ccccc2N3S(=O)(=O)c2ccc(C)cc2)cc1` were, in that order, 720 nM, 1490 nM and more than 10 µM.
Consider `CCN1CCN(c2cc(C)c3cc(NC(=O)/C=C/c4sccc4C)ccc3n2)CC1`, for which the EC50 was 1590 nM with Plasmodium falciparum [1] and more than 1550 nM with Plasmodium falciparum [2]. Moreover, in data set [3], the CC50 was more than 10 µM.
The corresponding values for `CCOC(=O)CN(N=O)C1=C(N2CC2)C(=O)c2ccccc2C1=O` are 206 nM, 3850 nM and 25.4 µM.
The like results for `Fc1ccc(Nc2nc(OC(C(F)(F)F)C(F)(F)F)nc(OC(C(F)(F)F)C(F)(F)F)n2)cc1` were, in that order, more than 1340 nM, 1570 nM and more than 10 µM.
As to `O=C(NCc1ccccc1)c1cccc2c(Br)cccc12`, the EC50 in the data set with Plasmodium falciparum [1] is more than 1100 nM; in the data set with Plasmodium falciparum [2], 1470 nM. The CC50 in data set [3] was more than 10 µM.
